# Test results published in ChEMBL document CHEMBL5291721, “A preclinical secondary pharmacology resource illuminates target-adverse drug reaction associations of marketed drugs” (Nat Commun, 2023).
# Columns and labels:
# [1] = target: T1, Amine oxidase [flavin-containing] A (Homo sapiens, UniProt P21397); format: functional
# T1 sequence (P21397 whole entry): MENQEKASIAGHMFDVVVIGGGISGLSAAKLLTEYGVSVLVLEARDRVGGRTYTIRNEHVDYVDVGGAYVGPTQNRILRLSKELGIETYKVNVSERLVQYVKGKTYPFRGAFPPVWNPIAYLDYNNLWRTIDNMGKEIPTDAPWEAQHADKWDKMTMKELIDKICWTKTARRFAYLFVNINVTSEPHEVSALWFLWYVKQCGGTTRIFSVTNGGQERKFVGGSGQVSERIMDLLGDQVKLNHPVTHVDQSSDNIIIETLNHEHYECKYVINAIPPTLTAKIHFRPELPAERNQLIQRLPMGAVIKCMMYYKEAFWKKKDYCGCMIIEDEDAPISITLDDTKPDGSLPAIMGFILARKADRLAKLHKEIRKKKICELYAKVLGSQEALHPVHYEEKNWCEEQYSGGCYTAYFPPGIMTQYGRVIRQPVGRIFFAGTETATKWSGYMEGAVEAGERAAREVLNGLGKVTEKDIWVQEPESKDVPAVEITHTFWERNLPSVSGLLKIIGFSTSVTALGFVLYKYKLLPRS
# Acetylcholinesterase = Acetylcholinesterase (Homo sapiens, UniProt P22303); format: functional
# [2] = target: cGMP-inhibited 3',5'-cyclic phosphodiesterase 3A (Homo sapiens, UniProt Q14432); format: functional
# [3] = target: Voltage-gated inwardly rectifying potassium channel KCNH2 (Homo sapiens, UniProt Q12809); format: functional
# [4] = target: T2, Prostaglandin G/H synthase 1 (Homo sapiens, UniProt P23219); format: functional
# Thromboxane A2 receptor = target: T3, Thromboxane A2 receptor (Homo sapiens, UniProt P21731); format: functional, cell-based
# T3 sequence (P21731 whole entry): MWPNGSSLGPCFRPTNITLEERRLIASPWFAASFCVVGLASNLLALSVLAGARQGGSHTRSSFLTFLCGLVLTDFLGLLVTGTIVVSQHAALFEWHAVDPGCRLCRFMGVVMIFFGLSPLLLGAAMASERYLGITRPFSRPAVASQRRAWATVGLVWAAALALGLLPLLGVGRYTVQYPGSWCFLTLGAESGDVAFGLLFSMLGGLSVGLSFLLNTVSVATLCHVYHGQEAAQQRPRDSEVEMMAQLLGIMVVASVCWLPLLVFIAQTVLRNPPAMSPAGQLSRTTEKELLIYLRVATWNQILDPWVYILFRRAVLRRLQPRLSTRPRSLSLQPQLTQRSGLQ
# [5] = target: T2, Prostaglandin G/H synthase 1; format: functional; remark: listed apart in the source
# [6] = target: 3',5'-cyclic-AMP phosphodiesterase 4A (Homo sapiens, UniProt P27815); format: functional
# Prothrombin = Prothrombin (Homo sapiens, UniProt P00734); format: functional
# [7] = target: T4, Alpha-2A adrenergic receptor (Homo sapiens, UniProt P08913)
# T4 sequence (P08913 whole entry): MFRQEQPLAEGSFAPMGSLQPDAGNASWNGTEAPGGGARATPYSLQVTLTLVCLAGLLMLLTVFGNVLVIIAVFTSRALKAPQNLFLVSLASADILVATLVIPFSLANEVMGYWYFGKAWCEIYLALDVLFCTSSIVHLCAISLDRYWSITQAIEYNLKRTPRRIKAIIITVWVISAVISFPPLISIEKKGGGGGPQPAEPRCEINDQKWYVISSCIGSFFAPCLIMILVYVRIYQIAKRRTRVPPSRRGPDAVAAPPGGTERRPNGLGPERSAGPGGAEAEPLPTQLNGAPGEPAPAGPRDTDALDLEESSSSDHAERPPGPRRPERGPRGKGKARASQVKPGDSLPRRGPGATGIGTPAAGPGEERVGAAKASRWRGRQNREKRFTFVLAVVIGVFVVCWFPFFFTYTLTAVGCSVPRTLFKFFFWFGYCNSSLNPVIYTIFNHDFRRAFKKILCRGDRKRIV
# [8] = target: T5, Alpha-1A adrenergic receptor (Homo sapiens, UniProt P35348); format: functional, cell-based
# T5 sequence (P35348 whole entry): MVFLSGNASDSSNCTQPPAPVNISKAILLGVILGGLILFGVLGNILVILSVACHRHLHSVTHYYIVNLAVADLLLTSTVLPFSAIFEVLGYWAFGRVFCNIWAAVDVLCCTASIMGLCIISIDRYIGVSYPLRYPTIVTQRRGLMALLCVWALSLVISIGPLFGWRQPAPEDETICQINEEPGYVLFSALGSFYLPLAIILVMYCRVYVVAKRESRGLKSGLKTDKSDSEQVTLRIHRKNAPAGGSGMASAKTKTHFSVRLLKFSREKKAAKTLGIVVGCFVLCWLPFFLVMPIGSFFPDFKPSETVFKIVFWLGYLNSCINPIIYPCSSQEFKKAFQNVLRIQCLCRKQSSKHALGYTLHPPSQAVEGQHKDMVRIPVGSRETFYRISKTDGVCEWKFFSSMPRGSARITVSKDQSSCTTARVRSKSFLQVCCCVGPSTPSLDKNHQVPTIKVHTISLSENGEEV
# [9] = target: Sodium-dependent noradrenaline transporter (Homo sapiens, UniProt P23975)
# D(1A) dopamine receptor = D(1A) dopamine receptor (Homo sapiens, UniProt P21728)
# D(3) dopamine receptor = D(3) dopamine receptor (Homo sapiens, UniProt P35462)
# [10] = target: 5-hydroxytryptamine receptor 2B (Homo sapiens, UniProt P41595); format: functional, cell-based
# [11] = target: T6, 5-hydroxytryptamine receptor 1A (Homo sapiens, UniProt P08908)
# T6 sequence (P08908 whole entry): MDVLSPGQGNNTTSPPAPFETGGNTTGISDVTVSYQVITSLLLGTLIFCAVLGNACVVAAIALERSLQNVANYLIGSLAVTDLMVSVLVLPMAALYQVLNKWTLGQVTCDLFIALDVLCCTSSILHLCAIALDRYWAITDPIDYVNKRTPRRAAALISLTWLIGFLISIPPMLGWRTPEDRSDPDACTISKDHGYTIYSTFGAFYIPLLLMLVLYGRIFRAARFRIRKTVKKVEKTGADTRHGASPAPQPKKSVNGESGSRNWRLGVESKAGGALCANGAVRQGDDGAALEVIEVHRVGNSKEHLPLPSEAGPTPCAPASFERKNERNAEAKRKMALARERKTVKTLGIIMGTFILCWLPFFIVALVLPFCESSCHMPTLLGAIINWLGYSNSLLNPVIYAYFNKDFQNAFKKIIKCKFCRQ
# Note: assay procedure not described here.
# T2 sequence (P23219 whole entry): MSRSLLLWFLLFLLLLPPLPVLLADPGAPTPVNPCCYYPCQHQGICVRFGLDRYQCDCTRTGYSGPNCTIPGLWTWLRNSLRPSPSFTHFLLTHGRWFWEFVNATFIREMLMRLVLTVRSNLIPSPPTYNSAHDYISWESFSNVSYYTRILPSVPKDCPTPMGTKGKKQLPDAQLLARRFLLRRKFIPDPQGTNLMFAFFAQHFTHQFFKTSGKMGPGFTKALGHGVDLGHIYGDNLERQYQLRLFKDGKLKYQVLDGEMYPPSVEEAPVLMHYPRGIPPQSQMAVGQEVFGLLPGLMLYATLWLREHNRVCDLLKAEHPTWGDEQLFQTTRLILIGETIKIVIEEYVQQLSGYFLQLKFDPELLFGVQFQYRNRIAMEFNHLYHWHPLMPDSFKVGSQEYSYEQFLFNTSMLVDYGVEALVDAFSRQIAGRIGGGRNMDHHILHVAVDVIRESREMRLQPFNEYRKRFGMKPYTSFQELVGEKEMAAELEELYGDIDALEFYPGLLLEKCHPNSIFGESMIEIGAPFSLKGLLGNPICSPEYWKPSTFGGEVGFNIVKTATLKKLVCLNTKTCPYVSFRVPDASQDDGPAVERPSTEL
# Voltage-gated inwardly rectifying potassium channel KCNH2, sequence (Q12809 whole entry): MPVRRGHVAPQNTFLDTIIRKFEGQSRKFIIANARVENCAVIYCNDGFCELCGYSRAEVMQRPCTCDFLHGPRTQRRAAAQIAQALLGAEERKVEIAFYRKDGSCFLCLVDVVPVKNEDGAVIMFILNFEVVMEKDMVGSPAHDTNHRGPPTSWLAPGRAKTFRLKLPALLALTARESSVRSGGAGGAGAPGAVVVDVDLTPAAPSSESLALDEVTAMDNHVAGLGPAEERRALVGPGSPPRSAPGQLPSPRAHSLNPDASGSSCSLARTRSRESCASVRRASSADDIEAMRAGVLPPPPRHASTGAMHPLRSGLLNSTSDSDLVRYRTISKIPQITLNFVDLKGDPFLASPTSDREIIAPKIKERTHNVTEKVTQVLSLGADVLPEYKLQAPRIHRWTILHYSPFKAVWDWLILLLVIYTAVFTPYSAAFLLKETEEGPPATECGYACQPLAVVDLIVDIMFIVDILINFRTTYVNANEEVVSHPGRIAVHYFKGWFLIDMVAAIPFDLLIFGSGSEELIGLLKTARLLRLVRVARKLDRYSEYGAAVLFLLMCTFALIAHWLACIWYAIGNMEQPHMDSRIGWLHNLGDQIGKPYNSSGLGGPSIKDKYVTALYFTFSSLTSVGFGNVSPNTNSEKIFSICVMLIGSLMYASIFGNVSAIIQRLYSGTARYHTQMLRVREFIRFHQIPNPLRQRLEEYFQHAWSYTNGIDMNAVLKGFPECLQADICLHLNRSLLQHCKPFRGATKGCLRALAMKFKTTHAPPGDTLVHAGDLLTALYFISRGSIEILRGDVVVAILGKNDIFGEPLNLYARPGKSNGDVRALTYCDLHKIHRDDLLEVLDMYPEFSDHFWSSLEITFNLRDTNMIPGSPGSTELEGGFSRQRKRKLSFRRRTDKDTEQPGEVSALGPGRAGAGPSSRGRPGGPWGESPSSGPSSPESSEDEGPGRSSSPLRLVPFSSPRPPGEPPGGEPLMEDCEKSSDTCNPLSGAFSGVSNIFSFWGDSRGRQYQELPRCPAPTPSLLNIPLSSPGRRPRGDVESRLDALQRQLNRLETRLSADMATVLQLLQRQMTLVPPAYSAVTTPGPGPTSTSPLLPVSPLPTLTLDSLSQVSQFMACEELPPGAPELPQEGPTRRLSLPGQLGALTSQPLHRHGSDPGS
# Sodium-dependent noradrenaline transporter, sequence (P23975 whole entry): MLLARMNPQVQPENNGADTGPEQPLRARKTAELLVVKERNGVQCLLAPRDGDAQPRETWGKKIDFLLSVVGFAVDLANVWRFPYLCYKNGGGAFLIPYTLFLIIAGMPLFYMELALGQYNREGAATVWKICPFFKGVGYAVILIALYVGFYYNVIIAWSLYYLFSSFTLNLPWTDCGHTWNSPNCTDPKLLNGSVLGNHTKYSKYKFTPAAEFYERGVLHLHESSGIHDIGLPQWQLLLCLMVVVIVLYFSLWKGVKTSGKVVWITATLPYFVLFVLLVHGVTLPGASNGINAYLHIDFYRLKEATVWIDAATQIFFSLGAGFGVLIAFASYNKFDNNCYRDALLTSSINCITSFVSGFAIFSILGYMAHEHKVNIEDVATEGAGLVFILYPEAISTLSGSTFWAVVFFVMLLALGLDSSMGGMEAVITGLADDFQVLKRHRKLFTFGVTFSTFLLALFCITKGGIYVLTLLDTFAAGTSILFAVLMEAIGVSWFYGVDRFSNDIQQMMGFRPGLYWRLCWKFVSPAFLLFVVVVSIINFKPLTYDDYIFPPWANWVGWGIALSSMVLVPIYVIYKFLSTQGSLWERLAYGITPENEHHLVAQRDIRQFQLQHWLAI
# 5-hydroxytryptamine receptor 2B, sequence (P41595 whole entry): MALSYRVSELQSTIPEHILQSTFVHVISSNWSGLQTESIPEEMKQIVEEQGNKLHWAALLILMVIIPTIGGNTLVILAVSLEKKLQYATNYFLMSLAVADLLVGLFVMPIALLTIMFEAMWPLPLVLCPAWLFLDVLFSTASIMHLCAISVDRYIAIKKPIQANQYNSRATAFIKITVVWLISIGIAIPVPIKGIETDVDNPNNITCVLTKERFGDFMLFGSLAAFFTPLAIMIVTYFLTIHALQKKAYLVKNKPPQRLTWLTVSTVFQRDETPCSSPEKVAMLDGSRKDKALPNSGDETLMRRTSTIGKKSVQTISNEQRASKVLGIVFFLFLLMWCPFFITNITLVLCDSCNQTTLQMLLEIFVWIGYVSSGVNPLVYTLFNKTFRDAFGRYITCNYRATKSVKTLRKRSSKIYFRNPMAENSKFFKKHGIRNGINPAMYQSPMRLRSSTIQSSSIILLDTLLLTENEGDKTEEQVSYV
# Acetylcholinesterase, sequence (P22303 whole entry): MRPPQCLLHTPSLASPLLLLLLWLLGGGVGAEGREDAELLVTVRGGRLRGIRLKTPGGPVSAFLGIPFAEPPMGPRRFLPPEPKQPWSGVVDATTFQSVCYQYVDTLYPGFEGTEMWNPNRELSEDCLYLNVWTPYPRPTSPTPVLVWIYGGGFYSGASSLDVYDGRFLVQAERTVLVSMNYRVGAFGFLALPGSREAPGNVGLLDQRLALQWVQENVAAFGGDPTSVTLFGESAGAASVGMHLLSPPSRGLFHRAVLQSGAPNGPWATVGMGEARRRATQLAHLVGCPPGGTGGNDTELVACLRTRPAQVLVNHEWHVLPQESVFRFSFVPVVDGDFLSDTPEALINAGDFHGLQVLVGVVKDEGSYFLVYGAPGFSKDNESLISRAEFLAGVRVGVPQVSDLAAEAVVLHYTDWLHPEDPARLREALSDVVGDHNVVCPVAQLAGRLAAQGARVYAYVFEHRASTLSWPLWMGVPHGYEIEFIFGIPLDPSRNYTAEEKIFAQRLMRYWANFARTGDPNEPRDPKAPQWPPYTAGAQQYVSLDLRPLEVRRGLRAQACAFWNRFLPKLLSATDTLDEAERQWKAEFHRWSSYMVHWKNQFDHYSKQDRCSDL
# D(3) dopamine receptor, sequence (P35462 whole entry): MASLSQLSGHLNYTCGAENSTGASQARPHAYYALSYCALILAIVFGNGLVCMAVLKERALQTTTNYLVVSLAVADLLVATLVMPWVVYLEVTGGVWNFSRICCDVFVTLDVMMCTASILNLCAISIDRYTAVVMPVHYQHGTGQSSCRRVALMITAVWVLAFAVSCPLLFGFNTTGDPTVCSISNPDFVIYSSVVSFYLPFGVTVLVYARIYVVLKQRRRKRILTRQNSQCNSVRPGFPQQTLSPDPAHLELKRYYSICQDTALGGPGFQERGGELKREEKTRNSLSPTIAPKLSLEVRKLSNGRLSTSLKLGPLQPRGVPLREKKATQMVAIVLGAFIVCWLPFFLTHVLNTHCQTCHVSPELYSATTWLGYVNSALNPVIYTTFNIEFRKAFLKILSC
# D(1A) dopamine receptor, sequence (P21728 whole entry): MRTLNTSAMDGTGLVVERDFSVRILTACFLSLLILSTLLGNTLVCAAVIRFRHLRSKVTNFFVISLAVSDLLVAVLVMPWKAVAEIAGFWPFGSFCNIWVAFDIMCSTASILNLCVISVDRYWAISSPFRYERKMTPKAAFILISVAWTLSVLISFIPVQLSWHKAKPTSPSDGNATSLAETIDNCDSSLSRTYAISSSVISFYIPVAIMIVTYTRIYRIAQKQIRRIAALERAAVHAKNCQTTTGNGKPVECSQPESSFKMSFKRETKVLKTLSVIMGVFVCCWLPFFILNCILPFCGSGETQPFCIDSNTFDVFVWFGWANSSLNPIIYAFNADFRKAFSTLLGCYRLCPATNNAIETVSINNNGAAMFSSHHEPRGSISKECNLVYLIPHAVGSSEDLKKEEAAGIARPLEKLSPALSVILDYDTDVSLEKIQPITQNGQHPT
compound,measurement,setting,value
CC(C)[C@@H]1CC[C@@H](C)C[C@H]1O [LEVOMENTHOL],AC50,[1],> 30 µM
same,AC50,Acetylcholinesterase,> 30 µM
same,AC50,[2],> 30 µM
same,AC50,[3],> 30 µM
same,AC50,[4],> 30 µM
same,AC50,Thromboxane A2 receptor,> 30 µM
same,AC50,[5],> 30 µM
same,AC50,[6],> 30 µM
same,AC50,Prothrombin,> 30 µM
same,AC50,[7],> 30 µM
same,AC50,[8],> 30 µM
same,AC50,[9],> 30 µM
same,AC50,D(1A) dopamine receptor,> 30 µM
same,AC50,D(3) dopamine receptor,> 30 µM
same,AC50,[10],> 30 µM
same,AC50,[11],> 30 µM
COC(=O)[C@@H](N)Cc1ccc(O)c(O)c1 [MELEVODOPA],AC50,[1],> 30 µM
same,AC50,Acetylcholinesterase,> 30 µM
same,AC50,[2],> 30 µM
same,AC50,[3],> 30 µM
same,AC50,[4],> 30 µM
same,AC50,Thromboxane A2 receptor,> 30 µM
same,AC50,[5],> 30 µM
same,AC50,[6],> 30 µM
same,AC50,Prothrombin,> 30 µM
same,AC50,[7],20.3 µM
same,AC50,[8],> 30 µM
same,AC50,[9],> 30 µM
same,AC50,D(1A) dopamine receptor,> 30 µM
same,AC50,D(3) dopamine receptor,> 30 µM
same,AC50,[10],> 30 µM
same,AC50,[11],> 30 µM
C[N+]1(C)CCCC(OC(=O)C(O)(c2ccccc2)c2ccccc2)C1 (stereo unspecified) [MEPENZOLATE],AC50,[1],> 30 µM
same,AC50,Acetylcholinesterase,> 30 µM
same,AC50,[2],> 30 µM
same,AC50,[3],13 µM
same,AC50,[4],> 30 µM
same,AC50,Thromboxane A2 receptor,> 30 µM
same,AC50,[5],> 30 µM
same,AC50,[6],> 30 µM
same,AC50,Prothrombin,> 30 µM
same,AC50,[7],> 30 µM
same,AC50,[8],> 30 µM
same,AC50,[9],> 30 µM
same,AC50,D(1A) dopamine receptor,> 30 µM
same,AC50,D(3) dopamine receptor,> 30 µM
same,AC50,[10],> 30 µM
same,AC50,[11],> 30 µM
C=N[C@@H](C(=O)N[C@@H]1C(=O)N2[C@@H]1SC(C)(C)[C@@H]2C(=O)O)c1ccccc1 [METAMPICILLIN],AC50,[1],> 30 µM
same,AC50,Acetylcholinesterase,> 30 µM
same,AC50,[2],> 30 µM
same,AC50,[3],> 30 µM
same,AC50,[4],9.26 µM
same,AC50,Thromboxane A2 receptor,> 30 µM
same,AC50,[5],11.8 µM
same,AC50,[6],> 30 µM
same,AC50,Prothrombin,> 30 µM
same,AC50,[7],> 30 µM
same,AC50,[8],> 30 µM
same,AC50,[9],> 30 µM
same,AC50,D(1A) dopamine receptor,> 30 µM
same,AC50,D(3) dopamine receptor,> 30 µM
same,AC50,[10],> 30 µM
same,AC50,[11],> 30 µM
O=C(NNCS(=O)(=O)O)c1ccncc1 [METHANIAZIDE],AC50,[1],> 30 µM
same,AC50,Acetylcholinesterase,> 30 µM
same,AC50,[2],> 30 µM
same,AC50,[3],> 30 µM
same,AC50,[4],> 30 µM
same,AC50,Thromboxane A2 receptor,> 30 µM
same,AC50,[5],> 30 µM
same,AC50,[6],> 30 µM
same,AC50,Prothrombin,> 30 µM
same,AC50,[7],> 30 µM
same,AC50,[8],> 30 µM
same,AC50,[9],> 30 µM
same,AC50,D(1A) dopamine receptor,> 30 µM
same,AC50,D(3) dopamine receptor,> 30 µM
same,AC50,[10],> 30 µM
same,AC50,[11],> 30 µM
Cc1cc(=O)[nH]c(=S)[nH]1 [METHYLTHIOURACIL],AC50,[1],> 30 µM
same,AC50,Acetylcholinesterase,> 30 µM
same,AC50,[2],> 30 µM
same,AC50,[3],> 30 µM
same,AC50,[4],13.1 µM
same,AC50,Thromboxane A2 receptor,> 30 µM
same,AC50,[5],> 30 µM
same,AC50,[6],> 30 µM
same,AC50,Prothrombin,> 30 µM
same,AC50,[7],> 30 µM
same,AC50,[8],> 30 µM
same,AC50,[9],> 30 µM
same,AC50,D(1A) dopamine receptor,> 30 µM
same,AC50,D(3) dopamine receptor,> 30 µM
same,AC50,[10],> 30 µM
same,AC50,[11],> 30 µM
